# Reference: patent US20240409585A1, “MACROCYCLIC IMMUNOMODULATORS” (priority 2021, published 2024)
# Bridge positions count the residues as written; N and C are the ends. Square brackets hold non-standard residues; d marks the D form. Peptide text beside a SMILES is read from it. Bip = N[C@@H](Cc1ccc(-c2ccccc2)cc1)C(=O)O; Phe(3-Me) = Cc1cccc(C[C@H](N)C(=O)O)c1; Val(3-OH) = CC(C)(O)[C@H](N)C(=O)O; Cha = N[C@@H](CC1CCCCC1)C(=O)O; Cit = NC(=O)NCCC[C@H](N)C(=O)O; NMeA = CN[C@@H](C)C(=O)O; Dab = NCC[C@H](N)C(=O)O
# Target: T1, PE-labeled human PD-L1-Ig binding to Jurkat cell line over-expressing human PD-1 (Jurkat-PD-1) (Homo sapiens, UniProt Q15116)
# T1 construct: expressed in transfected cells; host or cells: Jurkat
# T1 sequence (Q15116 25-288): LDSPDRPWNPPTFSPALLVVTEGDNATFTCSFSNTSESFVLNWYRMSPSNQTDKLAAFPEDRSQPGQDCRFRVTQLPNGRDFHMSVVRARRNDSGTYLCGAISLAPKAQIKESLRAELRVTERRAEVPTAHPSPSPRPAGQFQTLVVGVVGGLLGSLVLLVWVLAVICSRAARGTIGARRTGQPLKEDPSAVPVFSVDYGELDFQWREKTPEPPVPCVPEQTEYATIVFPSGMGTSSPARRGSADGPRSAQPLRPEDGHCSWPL
# Assay: Jurkat-PD-1 Cell Binding High-Content Screening Assay (CBA): Method 1
# Conditions: Jurkat-hPD-1 cells, PE-labeled PD-L1-Ig 20 nM final; read-out: Jurkat HPDL1 PD1 IC50 (uM) (Method 1)
row,SMILES,IC50 [µM]
1,Cc1cccc(C[C@@H]2NC(=O)[C@H](CC(=O)O)NC(=O)[C@H](Cc3ccc(O)cc3)NC(=O)[C@H](CC(N)=O)NC(=O)CSC[C@@H](C(=O)N[C@@H](CCN)C(N)=O)NC(=O)[C@H]([C@@H](C)O)NC(=O)[C@H](C(C)(C)O)NC(=O)[C@H](CC3CCCCC3)NC(=O)[C@H](CCN)NC(=O)[C@@H](CC(C)C)NC(=O)[C@H](C)N(C)C(=O)[C@H](CCCNC(N)=O)NC(=O)[C@H](Cc3ccc(-c4ccccc4)cc3)NC(=O)[C@H](C(C)(C)O)NC2=O)c1 [Compound 1705] ({CH2CO}-NYD[Phe(3-Me)][Val(3-OH)][Bip][Cit][NMeA][dL][Dab][Cha][Val(3-OH)]TC[Dab]-NH2; thioether N-14),0.03
2,Cc1cccc(C[C@@H]2NC(=O)[C@H](CC(=O)O)NC(=O)[C@H](Cc3ccc(O)cc3)NC(=O)[C@H](CC(N)=O)NC(=O)CSC[C@@H](C(=O)N[C@@H](CCN)C(N)=O)NC(=O)[C@H](CCC(=O)O)NC(=O)[C@H](C(C)C)NC(=O)[C@H](CC3CCCCC3)NC(=O)[C@H](CCN)NC(=O)[C@@H](CC(C)C)NC(=O)[C@H](C)N(C)C(=O)[C@H](CCCNC(N)=O)NC(=O)[C@H](Cc3ccc(-c4ccccc4)cc3)NC(=O)[C@H](C(C)(C)O)NC2=O)c1 [Compound 1709] ({CH2CO}-NYD[Phe(3-Me)][Val(3-OH)][Bip][Cit][NMeA][dL][Dab][Cha]VEC[Dab]-NH2; thioether N-14),0.03
3,Cc1cccc(C[C@@H]2NC(=O)[C@H](CC(=O)O)NC(=O)[C@H](Cc3ccc(O)cc3)NC(=O)[C@H](CC(N)=O)NC(=O)CSC[C@@H](C(=O)N[C@H](C)C(N)=O)NC(=O)[C@H](CCC(=O)O)NC(=O)[C@H](C(C)C)NC(=O)[C@H](CC3CCCCC3)NC(=O)[C@H](CCN)NC(=O)[C@@H](CC(C)C)NC(=O)[C@H](C)N(C)C(=O)[C@H](CCCNC(N)=O)NC(=O)[C@H](Cc3ccc(-c4ccccc4)cc3)NC(=O)[C@H](C(C)(C)O)NC2=O)c1 [Compound 1710] ({CH2CO}-NYD[Phe(3-Me)][Val(3-OH)][Bip][Cit][NMeA][dL][Dab][Cha]VEC[dA]-NH2; thioether N-14),0.11

# More lines, in order of falling IC50, values ahead:
row,IC50 [µM],SMILES
1,0.15,Cc1cccc(C[C@@H]2NC(=O)[C@H](CC(=O)O)NC(=O)[C@H](Cc3ccc(O)cc3)NC(=O)[C@H](CC(N)=O)NC(=O)CSC[C@@H](C(=O)N[C@H](C)C(N)=O)NC(=O)[C@H]([C@@H](C)O)NC(=O)[C@H](C(C)C)NC(=O)[C@H](CC3CCCCC3)NC(=O)[C@H](CCN)NC(=O)[C@@H](CC(C)C)NC(=O)[C@H](C)N(C)C(=O)[C@H](CCCNC(N)=O)NC(=O)[C@H](Cc3ccc(-c4ccccc4)cc3)NC(=O)[C@H](C(C)(C)O)NC2=O)c1 [Compound 1704] ({CH2CO}-NYD[Phe(3-Me)][Val(3-OH)][Bip][Cit][NMeA][dL][Dab][Cha]VTC[dA]-NH2; thioether N-14)
2,0.12,Cc1cccc(C[C@@H]2NC(=O)[C@H](CC(=O)O)NC(=O)[C@H](Cc3ccc(O)cc3)NC(=O)[C@H](CC(N)=O)NC(=O)CSC[C@@H](C(=O)N[C@H](C)C(N)=O)NC(=O)[C@H]([C@@H](C)O)NC(=O)[C@H](C(C)(C)O)NC(=O)[C@H](CC3CCCCC3)NC(=O)[C@H](CCN)NC(=O)[C@@H](CC(C)C)NC(=O)[C@H](C)N(C)C(=O)[C@H](CCCNC(N)=O)NC(=O)[C@H](Cc3ccc(-c4ccccc4)cc3)NC(=O)[C@H](C(C)(C)O)NC2=O)c1 [Compound 1706] ({CH2CO}-NYD[Phe(3-Me)][Val(3-OH)][Bip][Cit][NMeA][dL][Dab][Cha][Val(3-OH)]TC[dA]-NH2; thioether N-14)
